Several values for one entry are separate records, joined by “and”; a condition that tells them apart may be missing. Equal entries are not always repeated.
Test system: 817829-284-R-J1-PDC complex spheroid viability
Test: Anticancer human tumor 817829-284-R-J1-PDC patient-derived colon adenocarcinoma cell line growth inhibition [POLQ]
Settings: for viability, T/C: stronger effect = lower value; active means viability on the fitted dose curve at most 10% of control; inactive means the rest
Procedure: Multicellular complex tumor spheroid response to Polymerase (POL) inhibitors (novobiocin, ART-558, RP6685) in combination with a variety of drugs and investigational agents in selected tumor cell lines
The POL inhibitors (novobiocin, ART-558, and RP6685) were evaluated both individually and in combination with standard of care and investigational anticancer small molecules within a complex spheroid model of solid tumors. . Complex spheroids include a stromal component modeled by human endothelial cells (HUVEC) and fibroblasts modeled by human mesenchymal stem cells (MSCs). The concentration ranges selected for each drug and investigational agent were based upon clinically achievable concentrations if the clinical Cmax of the agent was known.
Compounds. The drugs and investigational agents: novobiocin (NSC847541), ART-558 (NSC835418), RP-6685 (NSC848927), peposertib (NSC802822), ceralasertib (NSC780249), elimusertib (NSC800525), camonsertib (NSC841442), AZD-1390 (NSC803789), olaparib (NSC753686), talazoparib (NSC767125), rucaparib (NSC756644), sotorasib (NSC818433), MRTX-1133 (NSC836407), SN-38 (NSC673596), topotecan (NSC609699), epotoside (NSC141540), doxorubicin (NSC123127), gemcitabine (NSC613327), 5-fluorouracil (NSC19893), paclitaxel (NSC125973), vemurafenib (NSC761431), MSA-2 (NSC828583), SN-011 (NSC837082), adavosertib (NSC754352), prexasertib (NSC758257), carboplatin (NSC241240) and oxaliplatin (NSC266046), were obtained from the National Cancer Institute (NCI) Developmental Therapeutics Program Chemical Repository (21). The FDA-approved anticancer drug set is available from the Developmental Therapeutics Program at https://dtp.cancer.gov/organization/dscb/obtaining/. […] The stock solutions were prepared in dimethyl sulfoxide (DMSO, Sigma-Aldrich, St. Louis, MO, cat. D2650), except for the platinum compounds which were prepared in saline (Quality Biological, Gaithersburg, MD, cat. 114-055-101), at 800-fold the tested concentration and stored at -70 degrees C prior to their use. All drugs and investigational agents were tested over a range starting from a high concentration at or near the clinical Cmax and decreasing in half-log increments. If the clinical Cmax for an agent had not been determined, the highest concentration tested was 10 microM, except for SN-38, which was tested at a high concentration of 1 microM.
Cell Culture. All cells were maintained in an incubator at 37 degrees C and 5% CO2 with 95% humidity. The PDC lines were cultured according to standard operating procedures established by the NCI PDMR (https://pdmr.cancer.gov). Table 3 of the manuscript, lists the cell lines along with the number of the three cell types plated to form the mct-spheroids and media for tumor cell growth. After thawing, all PDC lines, except 997537-175-T-J1-PDC and 415267-285-R-J2-PDC, were cultured in Matrigel-coated flasks prepared with a working solution of 1X Ham's F-12 nutrient mix, without supplementation (Thermo Fisher Scientific, cat. 11765054), 100 U/mL penicillin-streptomycin (Thermo Fisher Scientific, cat. 15140122), and 2.5% Matrigel (Corning Inc., Corning, NY, cat. 354248) for the first three passages. The two PDC lines 997537-175-T-J1-PDC and 415267-285-R-J2-PDC were cultured on uncoated flasks. The 857933-349-R-J2-PDC line was cultured in 6C/Colon 1B media containing advanced DMEM/F-12 (Thermo Fisher Scientific, cat. 12634028), 10 mM HEPES (Thermo Fisher Scientific, cat. 15630080), 1X GlutaMAX supplement (Thermo Fisher Scientific, cat. 35050061), 0.1 mg/mL primocin (InvivoGen, San Diego, CA, cat. ant-pm-2), 10% defined fetal bovine serum, heat inactivated (HyClone Laboratories Inc., Logan, UT, cat. SH30070.03HI), 50% L-WRN conditioned media (ATCC, cat. CRL-3276), 1.25 mM N-Acetyl-L-cysteine (Sigma-Aldrich, cat. A9165), 10 mM nicotinamide (Sigma-Aldrich, cat. N0636), 1X B-27 supplement (Thermo Fisher Scientific, cat. 17504044), 1X N-2 supplement (Thermo Fisher Scientific, cat. […]
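Further: spheroids exposed to compounds for 7 days.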
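Wherever viability, T/C is given: 100% = DMSO vehicle-treated spheroids.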

Nc1ccc(C#CCN(C(=O)Cc2ncc(C(F)(F)F)cc2C(F)(F)F)c2ccc(F)cc2)nn1
inactive: viability, T/C (compound 3.16 µM) 97.9% [middle of 13 runs] | viability, T/C (compound 10 µM) 99.7% [middle of 13 runs]
> 10000 nM: IC50 (compound alone, run of 12/05/2023)

C#Cc1c(F)ccc2cc(O)cc(-c3ncc4c(N5CC6CCC(C5)N6)nc(OCC56CCCN5CC(F)C6)nc4c3F)c12 (centres undefined)
inactive: viability, T/C (compound 0.0316 µM) 95.2% and 94.8% and 96% | viability, T/C (compound 0.1 µM) 84.6% and 98.2% and 122% | viability, T/C (compound 0.316 µM) 72% and 98.1% and 118% | viability, T/C (compound 1 µM) 88.4% and 89% and 92.8% | viability, T/C (compound 3.16 µM) 90.2% and 111% and 115% | viability, T/C (compound 10 µM) 53.8% and 102% and 54.2%
> 10000 nM: IC50 (curve of compound)

CC[C@@]1(O)C(=O)OCc2c1cc1n(c2=O)Cc2cc3c(CN(C)C)c(O)ccc3nc2-1
inactive: viability, T/C (compound 0.000316 µM) 89.9% and 104% and 89% | viability, T/C (compound 0.001 µM) 72.3% and 95.7% and 74.1% | viability, T/C (compound 0.00316 µM) 55.4% and 82.4% and 60.1% | viability, T/C (compound 0.01 µM) 39.6% and 38.4% and 46% | viability, T/C (compound 0.0316 µM) 22.9% and 25.4% and 21.7% | viability, T/C (compound 0.1 µM) 15.2% and 16.8% and 14.6%
4.5 nM and 7.57 nM and 6.12 nM: IC50 (curve of compound)

C=CC(=O)N1CCN(c2nc(=O)n(-c3c(C)ccnc3C(C)C)c3nc(-c4c(O)cccc4F)c(F)cc23)C(C)C1 (centres undefined)
> 10000 nM and 8900 nM: IC50 (curve of compound)
inactive: viability, T/C (compound 0.0316 µM) 70% and 89.9% and 113% | viability, T/C (compound 0.1 µM) 93.6% and 105% and 95.7% | viability, T/C (compound 0.316 µM) 103% and 97.2% and 99.5% | viability, T/C (compound 1 µM) 86.7% and 94.7% and 101% | viability, T/C (compound 3.16 µM) 88.8% and 90.2% and 102% | viability, T/C (compound 10 µM) 53% and 58.3% and 44.1%

CC1COCCN1c1cc(C2(O)CC3CCC(C2)O3)c2cnn(-c3ccn[nH]3)c2n1 (centres undefined)
inactive: viability, T/C (compound 0.0316 µM) 25.2% and 23.3% and 30.1%
8.33% and 10.7% and 8.37%: viability, T/C (compound 0.1 µM)
< 31.6 nM: IC50 (curve of compound)
active: viability, T/C (compound 0.316 µM) 4.72% and 4.82% and 4.13% | viability, T/C (compound 1 µM) 3.5% and 3.16% and 3.44% | viability, T/C (compound 3.16 µM) 3.23% and 3.58% and 4.19% | viability, T/C (compound 10 µM) 2.41% and 1.97% and 3.04%

O=C(c1cc(Cc2n[nH]c(=O)c3ccccc23)ccc1F)N1CCN(C(=O)C2CC2)CC1
22.3% and 7.71% and 32.7%: viability, T/C (compound 10 µM)

CC[C@@]1(O)C(=O)OCc2c1cc1n(c2=O)Cc2cc3c(CN(C)C)c(O)ccc3nc2-1 + Cc1cccc(N(C)C(=O)C2C(O)CCN2c2nc(C)cc(C(F)(F)F)c2C#N)c1
6.95 nM: IC50 (curve of first compound, second compound 1 µM)
7.54 nM: IC50 (curve of first compound, second compound 0.1 µM)
6.93 nM: IC50 (curve of first compound, second compound 0.0316 µM)
inactive: viability, T/C (second compound 0.0316 µM, first compound 0.000316 µM) 109% | viability, T/C (second compound 0.0316 µM, first compound 0.001 µM) 121% | viability, T/C (second compound 0.0316 µM, first compound 0.00316 µM) 78.5% | viability, T/C (second compound 0.0316 µM, first compound 0.01 µM) 38% | viability, T/C (second compound 0.0316 µM, first compound 0.0316 µM) 22.6% | viability, T/C (second compound 0.0316 µM, first compound 0.1 µM) 18.1% | viability, T/C (second compound 0.1 µM, first compound 0.000316 µM) 87.9% | viability, T/C (second compound 0.1 µM, first compound 0.001 µM) 118% | viability, T/C (second compound 0.1 µM, first compound 0.00316 µM) 72.8% | viability, T/C (second compound 0.1 µM, first compound 0.01 µM) 43.6% | viability, T/C (second compound 0.1 µM, first compound 0.0316 µM) 23.5% | viability, T/C (second compound 0.1 µM, first compound 0.1 µM) 17.4% | viability, T/C (second compound 0.316 µM, first compound 0.000316 µM) 103% | viability, T/C (second compound 0.316 µM, first compound 0.001 µM) 96.8% | viability, T/C (second compound 0.316 µM, first compound 0.00316 µM) 61.6% | viability, T/C (second compound 0.316 µM, first compound 0.01 µM) 54.1% | viability, T/C (second compound 0.316 µM, first compound 0.0316 µM) 20% | viability, T/C (second compound 0.316 µM, first compound 0.1 µM) 15.3% | viability, T/C (second compound 1 µM, first compound 0.000316 µM) 124% | viability, T/C (second compound 1 µM, first compound 0.001 µM) 84.9% | viability, T/C (second compound 1 µM, first compound 0.00316 µM) 76.2% | viability, T/C (second compound 1 µM, first compound 0.01 µM) 38.9% | viability, T/C (second compound 1 µM, first compound 0.0316 µM) 22% | viability, T/C (second compound 1 µM, first compound 0.1 µM) 17.2% | viability, T/C (second compound 3.16 µM, first compound 0.000316 µM) 89.7% | viability, T/C (second compound 3.16 µM, first compound 0.001 µM) 123% | viability, T/C (second compound 3.16 µM, first compound 0.00316 µM) 83.2% | viability, T/C (second compound 3.16 µM, first compound 0.01 µM) 37.2% | viability, T/C (second compound 3.16 µM, first compound 0.0316 µM) 21.4% | viability, T/C (second compound 3.16 µM, first compound 0.1 µM) 16.8% | viability, T/C (second compound 10 µM, first compound 0.000316 µM) 89.5% | viability, T/C (second compound 10 µM, first compound 0.001 µM) 113% | viability, T/C (second compound 10 µM, first compound 0.00316 µM) 82.7% | viability, T/C (second compound 10 µM, first compound 0.01 µM) 34.8% | viability, T/C (second compound 10 µM, first compound 0.0316 µM) 22.2% | viability, T/C (second compound 10 µM, first compound 0.1 µM) 14.6%
8.14 nM: IC50 (curve of first compound, second compound 0.316 µM)
6.98 nM: IC50 (curve of first compound, second compound 10 µM)
7.21 nM: IC50 (curve of first compound, second compound 3.16 µM)
